According to patent EP1908513A1, “Method for preparing and using chemical collections” (priority 2006, dated 2008):
In brackets after ≈: the same amount, converted by molar mass.

Tests used:
[1] = decimal logarithm of the molar aqueous solubility; cited from earlier work
[2] = Solubilization in water or 30% PEG-8000/water, freeze-drying and reconstitution; concentration by HPLC (Example 1); details: for PEG solutions, freeze dried and reconstituted Test 1 / PEG solutions, freeze dried and reconstituted Test 2: 30% PEG-8000, reconstituted with water; for PEG solutions, freeze dried and reconstituted Test 1 / PEG solutions, freeze dried and reconstituted Test 2 / CPEG / Cw: target 200 µM; for CPEG: 30% PEG-8000 / water, 50-fold dilution of 10 mM DMSO stock; for CPEG / Cw: filtered 0.45 µm; for Cw: aqueous solution, 50-fold dilution of 10 mM DMSO solution; for PEG solutions, reconstituted and diluted 1:10 Test 1 / PEG solutions, reconstituted and diluted 1:10 Test 2: diluted 1:10 with water, target 20 µM; for PEG solutions, reconstituted and diluted 1:10 Test 1: 3% PEG-8000, Test 1; for PEG solutions, reconstituted and diluted 1:10 Test 2: 3% PEG-8000, Test 2
Procedure: Materials and methods. […] The following compounds were obtained from Fluka - Riedel deHaën: phenylacetic acid, p-toluenesulphonamide, carbazol (Vetranal analytical standard), Polyethylene glycol 8000. Stock solutions were prepared in dimethylsulfoxide (Sigma-Aldrich, ACS spectrophotometric grade) at 10 mM concentration by weighing an appropriate amount of each compound and adding the computed DMSO volume with a calibrated variable volume pipet (Eppendorf). A solution of PEG-8000 (30%, w/w) in water in a 50 mL centrifuge tube was prepared by weighing 15.0 g of PEG-8000 and adding water up to 50.0 g.
Solutions were analysed using an Agilent 1100 chromatograph with the following HPLC method: • Column: Waters X-terra 4.6x50 mm, 3.5 µm • Mobile phase A: water/acetonitrile (97/3 by volume) containing 0.1% trifluoroacetic acid • Mobile phase B: acetonitrile containing 0.1% trifluoroacetic acid • Flow = 1 mL/min, injection = 10 µL, detection wavelength 220 nm (8 nm bandwidth) with reference at 400 nm (40 nm bandwidth). • Gradient 1: from 100% A to 60% A in 6 min, down to 40% A in 1 min, followed by 3 min re-equilibration at 100% A. • Gradient 2: from 70% A to 30% A in 6 min, 1 min isocratic elution at 30% A, followed by 3 min re-equilibration at 70% A.
The following solutions were prepared by 50-fold dilution of the DMSO stock solutions: • Target concentration: 200 µM in water • Target concentration: 200 µM in 30% PEG-8000 / water
After equilibration (1 day at room temperature), all solutions were filtered through 0.45 µm cellulose filters (ProFill, 25 mm syringe filters, Alltech). Aliquots were placed in HPLC vials and submitted to analysis. Two 1 mL aliquots of each 30% PEG solution were placed into 14x100 mm pre-weighed test tubes. These tubes were weighed, and placed in liquid nitrogen to freeze the solution, and finally submitted to freeze-drying in a Lio-5P apparatus (5Pascal, Trezzano sul Naviglio, Italy). After one day, the tubes were weighed and water was added with a micropipette in order to match the original solution weight. A fraction of these solutions was diluted 1:10 with water (target concentration: 20 µM).

[3] = Solubility in various aqueous PEG media, by HPLC (Example 2); details: aqueous with cosolvent or surfactant or cyclodextrin, kinetic from dmso stock, Average solubility, N=3
Procedure: Materials and methods. […] The following compounds were obtained from Fluka - Riedel deHaën: carbazol (Vetranal analytical standard), Polyethylene glycol 8000, Polyethylene glycol 20000, Polyethylene glycol 400. […] Solutions of PEG-8000 and PEG-20000 in water (30%, w/w) were prepared in 50 mL centrifuge tubes by weighing 15.0 g of the corresponding PEG and adding water up to 50.0 g. A solution containing PEG-8000 (10%, w/w) and PEG-400 (20%, w/w) was similarly prepared by mixing 5 g PEG-8000 with […], and adding water up to 50 g.
Results. […] Starting from DMSO stock solutions, dilute solutions with a nominal concentration of 200 µM were prepared by 50-fold dilution with one of three different aqueous PEG medium. After equilibration for 1 day at room temperature, these solutions were filtered through 0.45 µm cellulose filters (ProFill, 25 mm syringe filters, Alltech). Aliquots were placed in HPLC vials and submitted to analysis.

Cc1ccc(S(N)(=O)=O)cc1 [Compound 2, p-Toluenesulphonamide]
LogSw [1]: -1.74

CC(=O)CC(c1ccccc1)c1c(O)c2ccccc2oc1=O (stereo not drawn) [Compound 6, Warfarin]
PEG solutions, freeze dried and reconstituted Test 1 [2]: 199 µM | PEG solutions, freeze dried and reconstituted Test 2 [2]: 199 µM | CPEG [2]: 198 µM | Cw [2]: 155 µM | PEG solutions, reconstituted and diluted 1:10 Test 1 [2]: 20.2 µM | PEG solutions, reconstituted and diluted 1:10 Test 2 [2]: 20.4 µM | LogSw [1]: -4.26

CCOC(=O)c1ccc(O)cc1 [Compound 3, Ethyl-p-hydroxybenzoate]
LogSw [1]: -2.35

O=C(O)Cc1ccccc1 [Compound 1, Phenylacetic acid]
PEG solutions, freeze dried and reconstituted Test 1 [2]: 181 µM | PEG solutions, freeze dried and reconstituted Test 2 [2]: 187 µM | CPEG [2]: 198 µM | Cw [2]: 200 µM | PEG solutions, reconstituted and diluted 1:10 Test 1 [2]: 17.7 µM | PEG solutions, reconstituted and diluted 1:10 Test 2 [2]: 17.8 µM | LogSw [1]: -0.89

c1ccc2c(c1)[nH]c1ccccc12 [Compound 8, Carbazol]
measured concentration after ten-fold dilution of the reconstituted PEG lyophilized samples ([2]; 3% PEG-8000, range over both tests and both compounds): 19.0 to 19.4 µM | PEG solutions, freeze dried and reconstituted Test 1 [2]: 195 µM | PEG solutions, freeze dried and reconstituted Test 2 [2]: 195 µM | CPEG [2]: 196 µM | Cw [2]: 8.6 µM | PEG solutions, reconstituted and diluted 1:10 Test 1 [2]: 19.0 µM | PEG solutions, reconstituted and diluted 1:10 Test 2 [2]: 19.2 µM | solubility at 1 day ([3]; 20% PEG-400 + 10% PEG-8000, nominal 200 µM): 187 µM | solubility at 1 day ([3]; 30% PEG-8000, nominal 200 µM): 194 µM (≈ 32.4 µg/mL) | solubility at 1 day ([3]; 30% PEG-20000, nominal 200 µM): 188 µM (≈ 31.4 µg/mL) | LogSw [1]: -5.27
